Several values for one entry are separate records, joined by “and”; a condition that tells them apart may be missing. Equal entries are not always repeated. Structures can show the parent of a compound that is named as a salt. Each block holds one compound with its values, some of them ahead of it.
How the values were obtained:
cdk1/cyclin B = cdk1/cyclin B (Homo sapiens, UniProt P06493); assay: Cyclin-dependent kinase assay, cdk1/cyclin B (Histone H1 substrate)
cdk4/cyclin D1 = cdk4/cyclin D1 (Homo sapiens, UniProt P11802); assay: Cyclin-dependent kinase assay, cdk4/cyclin D1 (GST-pRb substrate); type: biochemical; conditions: inhibition of cyclin D1/CDK 4 enzyme activity
Sequence of cdk4/cyclin D1 (P11802 whole entry): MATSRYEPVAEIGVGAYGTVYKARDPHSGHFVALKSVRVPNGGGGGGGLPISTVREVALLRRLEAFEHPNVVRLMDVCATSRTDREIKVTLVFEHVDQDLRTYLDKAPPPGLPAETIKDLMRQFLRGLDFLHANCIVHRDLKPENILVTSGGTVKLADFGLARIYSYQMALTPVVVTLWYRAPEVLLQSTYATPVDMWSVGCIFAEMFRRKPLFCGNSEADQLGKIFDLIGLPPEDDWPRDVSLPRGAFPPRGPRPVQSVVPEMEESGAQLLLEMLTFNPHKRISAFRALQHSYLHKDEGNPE
Sequence of cdk4/cyclin D1 (P24385 whole entry partner): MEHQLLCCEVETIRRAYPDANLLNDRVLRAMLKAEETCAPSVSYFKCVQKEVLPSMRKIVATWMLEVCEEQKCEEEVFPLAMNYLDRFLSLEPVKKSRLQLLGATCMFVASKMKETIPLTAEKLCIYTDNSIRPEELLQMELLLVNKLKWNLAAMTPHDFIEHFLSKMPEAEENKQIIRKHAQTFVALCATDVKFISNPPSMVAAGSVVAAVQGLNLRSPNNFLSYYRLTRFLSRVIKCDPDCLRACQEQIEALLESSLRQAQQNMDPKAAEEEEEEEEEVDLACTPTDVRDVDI

[1] = Red blood cell binding (RBC to plasma ratio), human whole blood; type: in vitro ADME; conditions: 30 minutes at 37° C., nominal 500 ng/ml
Protocol: (§1) Compounds, including one positive control, are assessed for red blood cell (RBC) uptake, using a modified procedure based on the protocol reported in Sun, J. X. S., et al. High-performance liquid chromatographic analysis, plasma protein binding and red blood cell partitioning of phenprobamate. Biopharmaceutics and Drug Disposition, 8 (1987) 341-351.
(§2) Briefly, RBC uptake is evaluated by comparison of the levels in spiked plasma (n=3) and plasma isolated from spiked whole blood (n=3). Compounds are incubated with human and mouse whole blood, respectively, for 30 minutes at 37° C. using a nominal concentration of 500 ng/ml. Following centrifugation, the plasma is removed and submitted for analysis. Each compound is also spiked into blank plasma at a nominal concentration of 500 ng/ml, and submitted for analysis. Levels in the two plasma samples (Cp′ and Cp in the equation below) and the blood hematocrit are used to determine the red blood cell to plasma ratio (Crbc/Cp). [formula] In equation 1, Cp′ is the level of drug in the spiked “blank” plasma, Cp is the level of drug in the plasma of spiked whole blood, and H is the hematocrit. The hematocrit values are determined as 0.4 for human whole blood and 0.41 for mouse whole blood. The samples are analyzed with ESI LC/MS, using positive ion detection with an internal standard.
(§3) The red blood cell to plasma ratio is determined for each compound using equation 1. Tables 6 and 7 summarize the respective mean Crbc/Cp values and standard deviations for mouse and human whole blood, respectively, in descending order based on the red blood cell to plasma ratio, where “*” denotes Positive Control, and “ND” denotes Not Determined. MDL 108552 is included as a positive control for red blood cell uptake.

[2] = Red blood cell binding (RBC to plasma ratio), mouse whole blood; type: in vitro ADME; conditions: 30 minutes at 37° C., nominal 500 ng/ml
Protocol: as §1, §2, §3

[3] = Plasma pharmacokinetics in mice after single intravenous cassette doses; conditions: mice; for Mean concentration in plasma: single 18 mg/kg intravenous cassette dose (Cassette #1), BLQ = below assay quantification limit (approx. 1 ng/ml)
[4] = Cassette #3, single 15 mg/kg iv cassette dose (3 mg/kg/compound), 24 h
[5] = Cassette #2, single 18 mg/kg iv cassette dose (3 mg/kg/compound), 24 h
[6] = Cassette #4, single 15 mg/kg iv cassette dose (3 mg/kg/compound), 8 h
[7] = Cassette #4, single 15 mg/kg iv cassette dose (3 mg/kg/compound), 24 h

Sequence of cdk1/cyclin B (P06493 whole entry): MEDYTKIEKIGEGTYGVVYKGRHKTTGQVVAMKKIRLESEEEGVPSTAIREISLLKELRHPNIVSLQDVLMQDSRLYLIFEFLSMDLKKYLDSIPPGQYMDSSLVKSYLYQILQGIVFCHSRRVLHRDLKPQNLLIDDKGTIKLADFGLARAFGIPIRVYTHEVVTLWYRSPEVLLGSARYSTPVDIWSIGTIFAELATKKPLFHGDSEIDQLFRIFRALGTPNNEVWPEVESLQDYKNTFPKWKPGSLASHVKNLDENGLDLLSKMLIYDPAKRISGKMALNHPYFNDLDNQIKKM
Sequence of cdk1/cyclin B (P14635 whole entry partner): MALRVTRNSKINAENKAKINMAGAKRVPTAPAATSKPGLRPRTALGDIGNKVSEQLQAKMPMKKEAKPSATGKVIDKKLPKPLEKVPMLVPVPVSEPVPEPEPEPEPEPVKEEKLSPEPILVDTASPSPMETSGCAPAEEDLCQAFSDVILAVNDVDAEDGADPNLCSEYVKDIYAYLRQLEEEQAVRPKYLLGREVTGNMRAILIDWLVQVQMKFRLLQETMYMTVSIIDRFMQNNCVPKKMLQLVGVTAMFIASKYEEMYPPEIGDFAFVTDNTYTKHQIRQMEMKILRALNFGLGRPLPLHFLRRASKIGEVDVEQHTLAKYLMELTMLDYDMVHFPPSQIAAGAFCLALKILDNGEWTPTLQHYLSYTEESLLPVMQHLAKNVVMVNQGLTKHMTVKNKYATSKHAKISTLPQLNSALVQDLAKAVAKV

IC50 (cdk1/cyclin B): 0.009 µM | IC50 (cdk4/cyclin D1): 0.005 µM
SMILES: N[C@H]1CC[C@H](Nc2nc(NC3CCN(S(=O)(=O)c4cccs4)CC3)c3ncn(C4CCCC4)c3n2)CC1 [Compound 128, trans-N^2&-(4-Amino-cyclohexyl)-9-cyclopentyl-N^6-[1-(thiophene-2-sulfonyl)-piperidin-4-yl]-9H-purine-2,6-diamine dihydrochloride]

IC50 (cdk4/cyclin D1): > 10 µM
SMILES: C=CCCOC(=O)N1CCC(Nc2nc(N[C@H]3CC[C@H](N)CC3)nc3c2ncn3C2CCCC2)CC1 [Compound 100, trans-4-[2-(4-Amino-cyclohexylamino)-9-cyclopentyl-9H-purin-6-ylamino]-piperidine-1-carboxylic acid but-3-enyl ester dihydrochloride]

Mean Red Blood Cell to Plasma Ratio [1]: 2.8 | Mean Red Blood Cell to Plasma Ratio ([2]; hematocrit 0.41): 3.4 | Mean Conc. in plasma [3, 4]: BLQ
SMILES: Cl.Cl.N[C@H]1CC[C@H](Nc2nc(NC3CCN(C(=O)Nc4ccc(C(F)(F)F)cc4)CC3)c3ncn(C4CCCC4)c3n2)CC1 [Compound 149, trans-4-[2-(4-Amino-cyclohexylamino)-9-cyclopentyl-9H-purin-6-ylamino]-piperidine-1-carboxylic acid (4-trifluoromethyl-phenyl)-amide dihydrochloride]

Mean Red Blood Cell to Plasma Ratio [1]: 3.7 | Mean Red Blood Cell to Plasma Ratio ([2]; hematocrit 0.41): 2.4 | Mean Conc. in plasma [3, 4]: BLQ
SMILES: Cl.Cl.N[C@H]1CC[C@H](Nc2nc(NC3CCN(S(=O)(=O)c4cccc(C(F)(F)F)c4)CC3)c3ncn(C4CCCC4)c3n2)CC1 [Compound 112, trans-N^2-(4-Amino-cyclohexyl)-9-cyclopentyl-N^6-[1-(3-trifluoromethyl-benzenesulfonyl)-piperidin-4-yl]-9H-purine-2,6-diamine dihydrochloride]

IC50 (cdk4/cyclin D1): > 10 µM
SMILES: COc1cc(COC(=O)N2CCC(Nc3nc(N[C@H]4CC[C@H](N)CC4)nc4c3ncn4C3CCCC3)CC2)c([N+](=O)[O-])cc1OC [Compound 101, trans-4-[2-(4-Amino-cyclohexylamino)-9-cyclopentyl-9H-purin-6-ylamino]-piperidine-1-carboxylic acid 4,5-dimethoxy-2-nitro-benzyl ester dihydrochloride]

Mean Red Blood Cell to Plasma Ratio [1]: 5.0 | Mean Red Blood Cell to Plasma Ratio ([2]; hematocrit 0.41): 2.4 | Mean concentration in plasma ([3]; 24 h): BLQ
SMILES: Cl.Cl.N#Cc1ccc(S(=O)(=O)N2CCC(Nc3nc(N[C@H]4CC[C@H](N)CC4)nc4c3ncn4C3CCCC3)CC2)cc1 [Compound 109, trans-N^2-(4-Amino-cyclohexyl)-9-cyclopentyl-N^6-[1-(4-cyano-benzenesulfonyl)-piperidin-4-yl]-9H-purine-2,6-diamine dihydrochloride]

Mean Red Blood Cell to Plasma Ratio [1]: 3.9 | Mean Red Blood Cell to Plasma Ratio ([2]; hematocrit 0.41): 3.0 | Mean Conc. in plasma [3, 6]: BLQ^a | Mean Conc. in plasma [3, 7]: BLQ
SMILES: Cl.Cl.N[C@H]1CC[C@H](Nc2nc(NC3CCN(S(=O)(=O)c4ccc(F)cc4)CC3)c3ncn(C4CCCC4)c3n2)CC1 [Compound 106, trans-N^2-(4-Amino-cyclohexyl)-9-cyclopentyl-N^6-[1-(4-fluoro-benzenesulfonyl)-piperidin-4-yl]-9H-purine-2,6-diamine dihydrochloride]

Continued, compound first:

SMILES: NC1CCC(Nc2nc(NC3CCN(C(=O)[C@@H]4C[C@H]4c4ccccc4)CC3)c3ncn(C4CCCC4)c3n2)CC1 (mixture of isomers) [Compound 43, (±)-trans-1-{4-[2-(4-Amino-cyclohexylamino)-9-cyclopentyl-9H-purin-6-ylamino]-piperidin-1-yl}-1-(2-phenyl-cyclopropyl)-methanone dihydrochloride]
IC50 (cdk1/cyclin B): 0.051 µM | IC50 (cdk4/cyclin D1): 0.293 µM

SMILES: Cl.Cl.N[C@H]1CC[C@H](Nc2nc(NC3CCN(C(=O)c4cccc(C(F)(F)F)c4F)CC3)c3ncn(C4CCCC4)c3n2)CC1 [Compound 12, trans-1-{4-[2-(4-Amino-cyclohexylamino)-9-cyclopentyl-9H-purin-6-ylamino]-piperidin-1-yl}-1-(2-fluoro-3-trifluoromethyl-phenyl)-methanone dihydrochloride]
Mean Red Blood Cell to Plasma Ratio [1]: 3.6 | Mean Red Blood Cell to Plasma Ratio ([2]; hematocrit 0.41): 1.9 | Mean concentration in plasma ([3]; 24 h): BLQ

SMILES: N[C@H]1CC[C@H](Nc2nc(NC3CCN(C(=O)/C=C/c4cccc(C(F)(F)F)c4)CC3)c3ncn(C4CCCC4)c3n2)CC1 [Compound 44, trans-(E)-1-{4-[2-(4-Amino-cyclohexylamino)-9-cyclopentyl-9H-purin-6-ylamino]-piperidin-1-yl}-3-(3-trifluoromethyl-phenyl)-propenone dihydrochloride]
IC50 (cdk1/cyclin B): 0.129 µM | IC50 (cdk4/cyclin D1): 1.49 µM

SMILES: Cl.Cl.N[C@H]1CC[C@H](Nc2nc(NC3CCN(C(=O)Oc4ccc(Cl)cc4)CC3)c3ncn(C4CCCC4)c3n2)CC1 [Compound 88, trans-4-[2-(4-Amino-cyclohexylamino)-9-cyclopentyl-9H-purin-6-ylamino]-piperidine-1-carboxylic acid 4-chloro-phenyl ester dihydrochloride]
Mean Red Blood Cell to Plasma Ratio [1]: 2.6 | Mean Red Blood Cell to Plasma Ratio ([2]; hematocrit 0.41): 3.5 | Mean Conc. in plasma ([3]; Cassette #3, single 15 mg/kg iv cassette dose (3 mg/kg/compound), 0.083 h): 1.4833 ± 0.2725 µg/mL | Mean Conc. in plasma ([3]; Cassette #3, single 15 mg/kg iv cassette dose (3 mg/kg/compound), 0.25 h): 0.4209 ± 0.0499 µg/mL | Mean Conc. in plasma ([3]; Cassette #3, single 15 mg/kg iv cassette dose (3 mg/kg/compound), 0.5 h): 0.1502 ± 0.0059 µg/mL | Mean Conc. in plasma ([3]; Cassette #3, single 15 mg/kg iv cassette dose (3 mg/kg/compound), 1 h): 0.0746 ± 0.0161 µg/mL | Mean Conc. in plasma ([3]; Cassette #3, single 15 mg/kg iv cassette dose (3 mg/kg/compound), 3 h): 0.0248 ± 0.0074 µg/mL | Mean Conc. in plasma ([3]; Cassette #3, single 15 mg/kg iv cassette dose (3 mg/kg/compound), 6 h): 0.0089 ± 0.0016 µg/mL | Mean Conc. in plasma ([3]; Cassette #3, single 15 mg/kg iv cassette dose (3 mg/kg/compound), 8 h): 0.0054 ± 0.002 µg/mL | Mean Conc. in plasma [3, 4]: BLQ

SMILES: CC(C)=CC(=O)N1CCC(Nc2nc(N[C@H]3CC[C@H](N)CC3)nc3c2ncn3C2CCCC2)CC1 [Compound 30, trans 1-{4-[2-(4-Amino-cyclohexylamino)-9-cyclopentyl-9#H!-purin-6-ylamino]-piperidin-1-yl}-3-methyl-but-2-en-1-one dihydrochloride]
IC50 (cdk1/cyclin B): 0.025 µM | IC50 (cdk4/cyclin D1): 0.683 µM

SMILES: Cl.Cl.N[C@H]1CC[C@H](Nc2nc(NC3CCN(C(=O)Oc4ccc(Br)cc4)CC3)c3ncn(C4CCCC4)c3n2)CC1 [Compound 81, trans-4-[2-(4-Amino-cyclohexylamino)-9-cyclopentyl-9H-purin-6-ylamino]-piperidine-1-carboxylic acid 4-bromo-phenyl ester dihydrochloride]
Mean Red Blood Cell to Plasma Ratio [1]: 5.3 | Mean Red Blood Cell to Plasma Ratio ([2]; hematocrit 0.41, dihydrochloride): 4.5 and 3.3 | Mean Conc. in plasma [3, 5]: BLQ

SMILES: Cl.Cl.N[C@H]1CC[C@H](Nc2nc(NC3CCN(C(=O)Oc4ccc([N+](=O)[O-])cc4)CC3)c3ncn(C4CCCC4)c3n2)CC1 [Compound 89, trans-4-[2-(4-Amino-cyclohexylamino)-9-cyclopentyl-9H-purin-6-ylamino]-piperidine-1-carboxylic acid 4-nitro-phenyl ester dihydrochloride]
Mean Red Blood Cell to Plasma Ratio [1]: 4.2 | Mean Red Blood Cell to Plasma Ratio ([2]; hematocrit 0.41): 4.7 | Mean Conc. in plasma ([3]; Cassette #4, single 15 mg/kg iv cassette dose (3 mg/kg/compound), 0.083 h): 0.642 ± 0.0495 µg/mL | Mean Conc. in plasma ([3]; Cassette #4, single 15 mg/kg iv cassette dose (3 mg/kg/compound), 0.25 h): 0.3033 ± 0.0343 µg/mL | Mean Conc. in plasma ([3]; Cassette #4, single 15 mg/kg iv cassette dose (3 mg/kg/compound), 0.5 h): 0.1424 ± 0.0027 µg/mL | Mean Conc. in plasma ([3]; Cassette #4, single 15 mg/kg iv cassette dose (3 mg/kg/compound), 1 h): 0.0524 ± 0.0042 µg/mL | Mean Conc. in plasma ([3]; Cassette #4, single 15 mg/kg iv cassette dose (3 mg/kg/compound), 3 h): 0.017 ± 0.0047 µg/mL | Mean Conc. in plasma ([3]; Cassette #4, single 15 mg/kg iv cassette dose (3 mg/kg/compound), 6 h): 0.0037 ± 0.001 µg/mL | Mean Conc. in plasma [3, 6]: 0.0038 ± 0.0005 µg/mL | Mean Conc. in plasma [3, 7]: BLQ

SMILES: COc1ccc(OC(=O)N2CCC(Nc3nc(N[C@H]4CC[C@H](N)CC4)nc4c3ncn4C3CCCC3)CC2)cc1.Cl.Cl [Compound 84, trans-4-[2-(4-Amino-cyclohexylamino)-9-cyclopentyl-9H-purin-6-ylamino]-piperidine-1-carboxylic acid 4-methoxy-phenyl ester dihydrochloride]
Mean Red Blood Cell to Plasma Ratio [1]: 2.0 | Mean Red Blood Cell to Plasma Ratio ([2]; hematocrit 0.41): 3.5 | Mean Conc. in plasma [3, 5]: BLQ

Source: patent US6861524B2, “Acyl and sulfonyl derivatives of 6,9-disubstituted 2-(trans-1,4-diaminocyclohexyl)-purines and their use as antiproliferative agents” (Aventis Pharmaceuticals Inc., priority 2000, dated 2005)
